{"source": "patent US8524193B2", "about": "“Non-invasive diagnostic imaging technology for mitochondria using radiolabeled lipophilic salts” (The Johns Hopkins University, priority 2002, dated 2013)", "key": {"[1]": {"experiment": "C-11-TPMP uptake kinetics in the myocardium (PET)", "assay_type": "in vivo", "settings": "dog, five-fold increase (by adenosine) in flow", "procedure": "We have examined the performance of C-11-triphenyl phosphonium cation (TPMP) for assessing regional myocardial flow in dog using PET (Kraus, 1994).\nMethods: Four mCi of C-11-TPMP were introduced i.v., and dynamic images of increasing duration (15 sec to 20 min) were acquired over a total time of 85 min. Images were acquired on the GE 4096+ PET scanner (15 slices, 6.5 mm slice thickness). Images were reconstructed using backprojection, and corrected for attenuation. A detailed description of methods appears in Kraus, 1994. These images show excellent visualization of the myocardium with a high contrast to the surrounding lung tissue. During the plateau time period heart/lung ratio was >14:1, and heart/blood >100:1. Under baseline conditions (flow=69 ml/min/100 g), the extraction fraction is very high (91%). […] To investigate the relationship between myocardial blood flow and C-11-TPMP uptake in the heart, the LAD was occluded and the C-11-TPMP accumulation in tissue samples compared to microsphere determined regional myocardial blood flow. A significant correlation (r=0.93, p<0.01) was found at 5 min after LAD occlusion (FIG. 12). The non-infracted/infracted myocardium ratio was 12.1±2.4. […] Thallium 201 extraction under baseline flow is about 80%, decreasing to about 60% for five-fold increases in flow rate. […]"}, "FCA-induced inflammation": {"test_system": "FCA-induced inflammation", "experiment": "Accumulation in FCA-induced inflammation tissue and healthy muscle", "assay_type": "in vivo, rats", "settings": "for Inf/Control: ratio inflammation tissue to healthy muscle, 3 days after FCA; for Accumulation, Control: rats, healthy muscle, 3 days after administration of FCA", "procedure": "(§1) 0.1 ml of nitrosomethyl urea (NUM) was introduced i.p in female rats (150 g). When tumor reached an approximate size of 1 to 1.5 cm, FCA was injected (0.15 ml) to the hind limb footpad. Uptake assays were carried out 3 days thereafter. F-18-FBnTP (0.25 mCi) was injected via tail vein. Sixty minutes later tumor, inflamed tissue and healthy muscle tissue of the opposite limb (control) were collected on ice, weighed and counted in a gamma counter together with standards.\nThe accumulation of the novel F-18-phosphonium cations, F-18-FBnTP and F-18-fluoropropyl triphenyl phosphonium (F-18-FPTP) in comparison with F18-FDG in FCA-induced inflammation and healthy tissue is presented in Table 2. Induction of inflammation and activity counting were carried out as described above. Fluorophosphonium compounds accumulate in inflammation much less than FDG (Table 2). These date provide strong evidence to our claim that F-18-phosphonium compound are suitable for differentiation of tumor from inflammation and may resolve a major drawback of F-18-FDG. Table 2: Accumulation of Fluorophosphonium Compounds (FBnTP and FPTP) FDG in inflammation tissue and healthy muscle 3 days after administration of FCA."}, "[2]": {"test_system": "orthotopic NMU mammary tumor", "experiment": "Uptake in NMU mammary tumor versus healthy gland and FCA inflammation", "assay_type": "in vivo", "settings": "NMU-bearing female rats, 60 min after injection, normalized to muscle", "description": "The carcinogen nitrosomethyl urea (NMU) induces carcinoma tumors solely in the mammary gland of female rats. Therefore, the orthotopic NMU mammary tumor is an excellent model for evaluating tracer tumor selectivity by contrasting radioactivity accumulating in mammary gland infested with carcinoma cells and healthy mammary gland. Freund Complete Adjuvant (FCA) is a well_studied inflammation agent in rats Induction of FCA inflammation in NMU-bearing rats allows for direct quantitation of tracer capability to differentiate carcinoma from inflammation.\nas §1"}, "[3]": {"test_system": "Human lung carcinoma H549 cells", "experiment": "Mitochondria membrane potential (MMP)-dependent cellular uptake with CCCP", "assay_type": "cell-based", "settings": "CCCP 30, 60, 90, 120 μM, 30 min", "procedure": "The extent of MMP-dependent cellular uptake of F-18-FBnTP was assessed using CCCP, a known protonophore that selectively abolishes the MMP.\nMethods: Human lung carcinoma H549 cells ([…]) were incubated with 0.1 μCi/ml F-18-FBnTP for 30 min. Samples of the suspension (1 mL) were transferred to Eppendorf's vials and placed in a 370 C bath. Varying concentrations (30, 60, 90, 120 μM) of CCCP were added to the suspension. After 30 min of incubation with CCCP, the Eppendorf vials were centrifuged for 1 min, and activity in pellet and supernatant was immediately counted."}, "[4]": {"experiment": "F-18-FBnTP uptake kinetics in the myocardium (PET)", "assay_type": "in vivo, Mongrel dogs", "settings": "dog PET", "procedure": "Methods: Mongrel dogs (BW=35 kg) were injected with 3-4 mCi of F-18-FBnTP. Images were acquired on a GE 4096+ scanner (15 slices, 6.5 mm slice thickness). PET scans of increasing duration (15 sec to 20 min) were acquired over a total time of 85 min post-injection. Arterial blood samples (0.5 ml in volume) were collected every few seconds for the first 3 minutes and at gradually increasing intervals (1 to 10 min) for the remaining time of the imaging study. The vascular and myocardial kinetics of F-18-FBnTP was analyzed using the ROI method."}, "[5]": {"experiment": "Stability of F-18-FBnTP in plasma after injection into mice (column switch HPLC)", "assay_type": "in vivo", "procedure": "Radiochemical purity of F-18-FBnTP and its stability in vivo was measured by chromatography.\nSamples of mouse plasma were obtained from heparinized whole bloodcollected 5, 15 and 30 min p.i. of the tracer. To eliminate binding to plasma proteins, the plasma was added to solid urea to give a final concentration of 8M urea. The plasma-urea was loaded into a column switch HPLC system (Hilton 2000), in which the plasma passes through a small capture column (Oasis Sorbent, Waters Corp.), which retains lipophilic solutes, while polar species fail to bind and are detected as they pass through a positron detector. After four minutes, the capture column is free of plasma proteins and polar species. Then, the contents of the capture column was swept onto an analytical column (Prodigy ODS-3, Phenomenex) by 40% acetonitrile, 60% triethylamine acetate buffer pH 4.1 at 1 mL/min, where separation of the parent compound and lipophilic metabolites occurs. The effluent from the analytical column also passes through the positron flow detector. The proportion of each species is determined from the area under each chromatographic peak. Results: Radiochemical purity of the 18F-labeled FBnTP was more than 95%. […] FIG. 1 depicts the chromatogram of plasma collected 30 min p.i., and the parental compound incubated for a similar time period (30 min) in buffered saline. […]"}, "[6]": {"experiment": "Stability of fluorination: total bone uptake", "assay_type": "in vivo", "settings": "mice, 5 and 30 min p.i., compared to mice injected with F-18 only; listed as F-18-FBnTP", "procedure": "Methods: Mice were injected via the tail vein with 25 μCi of F-18-PhC; 5 and 30 min p.i., the left or right femur bone was removed, and bone radioactivity together with standard (1:100 of injected dose) were counted in a gamma counter. A parallel group of mice was injected with free fluorides (F-18). Three mice of each group were studied at each time point. Radioactivity is represented as percentage of injected dosed (% ID) and total bone uptake was calculated as activity in femur bone ×20."}, "[7]": {"experiment": "F-18-FBnTP myocardial accumulation in pacing model of heart failure (PET)", "assay_type": "in vivo, mongrel dog", "procedure": "Pacing of the mongrel dog heart at high rate (210 bpm) for a four weeks is a well-established model of heart failure. The advantage of this model is that the cardiomyopathy solely involve apoptosis without stenosis of coronary artery or related ischemia. Therefore, in this model the affect of apoptosis on FBnTP uptake can be dissected.\nMethods: Preparation of dog and data acquisition was performed as described above. Mongrel dog was installed with a pacemaker in the rib case and underwent FBnTP PET scan (presented above). Following the baseline scan, the dog_s heart was paced at a rate of 210 bpm for 4 weeks and a second scan was acquired.\nFIG. 18 depicts co-registered images before and after pacing. […] Quantitation of FBnTP in the myocardium was performed using region of interest placed on co-registered myocardial images, whose activity was normalized to the injected dose, before and after pacing. An example for ROI placement is illustrated in FIG. 18."}, "[8]": {"settings": "cited from earlier work"}, "[9]": {"settings": "five-fold increases in flow rate / high flow rates"}}, "note": "Several values for one entry are separate records, joined by “and”; a condition that tells them apart may be missing. Equal values may be shown once. Read-outs that look alike come from different tables or passages of the source."}
{"compound": "[11CH3][P+](c1ccccc1)(c1ccccc1)c1ccccc1", "note": "[[11C]TPMP, C-11-triphenylmethyl phosphonium]", "values": [{"measurement": "decrease of the extraction fraction", "setting": "[1]", "value": 39, "unit": "%"}]}
{"compound": "[18F]c1ccc(C[P+](c2ccccc2)(c2ccccc2)c2ccccc2)cc1", "note": "[[18F]FBnTP, F-18-fluorobenzyl triphenyl phosphonium]", "values": [{"measurement": "Inf/Control", "setting": "FCA-induced inflammation", "value": 0.42}, {"measurement": "Accumulation, Control", "setting": "FCA-induced inflammation", "value": "0.76 ± 0.21", "unit": "% ID/g tissue"}, {"measurement": "uptake in tumor relative to healthy gland", "setting": "[2]", "value": 4, "unit": "times"}, {"measurement": "uptake in tumor relative to inflammation", "setting": "[2]; FCA inflammation 3 days", "value": 3, "unit": "times"}, {"measurement": "MMP-dependent share of cellular uptake", "setting": "[3]", "value": 86, "unit": "%"}, {"measurement": "washout from the blood pool", "setting": "[4]; arterial blood samples", "value": "rapid washout"}, {"measurement": "time to equilibrium of accumulation in the myocardium", "setting": "[4]; persisted for the remaining scanning time (85 min)", "value": "within a few minutes"}, {"measurement": "stable after intravenous injection of the tracer in vivo", "setting": "[5]; mice, plasma radiochromatograms", "value": "more than 30 min"}, {"measurement": "single radio-peak in plasma chromatography, share of total activity", "setting": "[5]; mouse plasma collected 5, 15 and 30 min p.i., no other peak observed", "value": 97, "unit": "%"}, {"measurement": "total bone uptake", "setting": "[6]", "value": "minimal bone uptake"}, {"measurement": "Ratio P/B", "setting": "[7]; Slices 36-37, ROI1", "value": 0.62}, {"measurement": "Ratio P/B", "setting": "[7]; Slices 36-37, ROI2", "value": 0.91}, {"measurement": "Ratio P/B", "setting": "[7]; Slices 36-37, ROI3", "value": 0.85}, {"measurement": "Ratio P/B", "setting": "[7]; Slices 46-49, ROI1", "value": 0.56}, {"measurement": "Ratio P/B", "setting": "[7]; Slices 46-49, ROI2", "value": 0.76}, {"measurement": "Ratio P/B", "setting": "[7]; Slices 46-49, ROI3", "value": 0.82}, {"measurement": "decrease in uptake in the inferior wall after pacing", "setting": "[7]; dog, 210 bpm for 4 weeks, p<0.001", "value": "40-60%"}]}
{"compound": "[18F]CCC[P+](c1ccccc1)(c1ccccc1)c1ccccc1", "note": "[[18F]FPTP, [^18F]3-fluoropropyltriphenyl-phosphonium ion]", "values": [{"measurement": "Inf/Control", "setting": "FCA-induced inflammation", "value": 0.25}, {"measurement": "Accumulation, Control", "setting": "FCA-induced inflammation", "value": "0.29 ± 0.06", "unit": "% ID/g tissue"}]}
{"compound": "OC[C@H]1OC(O)[C@H]([18F])[C@@H](O)[C@@H]1O", "note": "(some centres unmarked) [[^18F]FDG, reference compound]", "values": [{"measurement": "Inf/Control", "setting": "FCA-induced inflammation", "value": "1.20 and 2.12"}, {"measurement": "Accumulation, Control", "setting": "FCA-induced inflammation", "value": "1.05 ± 0.35 % ID/g tissue and 0.68 ± 0.14 % ID/g tissue"}]}
{"compound": "[99Tc].[C-]#[N+]CC(C)(C)OC.[C-]#[N+]CC(C)(C)OC.[C-]#[N+]CC(C)(C)OC.[C-]#[N+]CC(C)(C)OC.[C-]#[N+]CC(C)(C)OC.[C-]#[N+]CC(C)(C)OC", "note": "[[^99mTc]MIBI, Tc-99m-sestamibii]", "values": [{"measurement": "myocardial extraction", "setting": "[8]; baseline / normal flow", "value": "about 60%"}, {"measurement": "myocardial extraction", "setting": "[8]; [9]", "value": 40, "unit": "%"}]}
{"compound": "Thallium 201", "values": [{"measurement": "myocardial extraction", "setting": "[8]; baseline / normal flow", "value": "about 80%"}, {"measurement": "myocardial extraction", "setting": "[8]; [9]", "value": "about 60%"}]}
